According to patent publication US8450352B2, “Thiazole compounds and their use for inhibiting phosphodiesterase 4, TNF-α, and IL-4” (Otsuka Pharmaceutical Co., Ltd., priority 2004, dated 2013):

Key:
human PDE4D (HPDE4D) = target: T1, human PDE4D (HPDE4D) (Homo sapiens, UniProt Q08499); test: Confirmatory test for phosphodiesterase (PDE) 4 inhibitory activity; type: biochemical; settings: concentration that inhibits the PDE4 activity by 50%; PDE4D enzyme solution from transfected COS-7 cells, [3H]cAMP substrate
T1 construct: made in house; host or cells: COS-7 cells (African green monkey kidney), transient transfection; soluble supernatant of the homogenate
T1 sequence (Q08499 whole entry): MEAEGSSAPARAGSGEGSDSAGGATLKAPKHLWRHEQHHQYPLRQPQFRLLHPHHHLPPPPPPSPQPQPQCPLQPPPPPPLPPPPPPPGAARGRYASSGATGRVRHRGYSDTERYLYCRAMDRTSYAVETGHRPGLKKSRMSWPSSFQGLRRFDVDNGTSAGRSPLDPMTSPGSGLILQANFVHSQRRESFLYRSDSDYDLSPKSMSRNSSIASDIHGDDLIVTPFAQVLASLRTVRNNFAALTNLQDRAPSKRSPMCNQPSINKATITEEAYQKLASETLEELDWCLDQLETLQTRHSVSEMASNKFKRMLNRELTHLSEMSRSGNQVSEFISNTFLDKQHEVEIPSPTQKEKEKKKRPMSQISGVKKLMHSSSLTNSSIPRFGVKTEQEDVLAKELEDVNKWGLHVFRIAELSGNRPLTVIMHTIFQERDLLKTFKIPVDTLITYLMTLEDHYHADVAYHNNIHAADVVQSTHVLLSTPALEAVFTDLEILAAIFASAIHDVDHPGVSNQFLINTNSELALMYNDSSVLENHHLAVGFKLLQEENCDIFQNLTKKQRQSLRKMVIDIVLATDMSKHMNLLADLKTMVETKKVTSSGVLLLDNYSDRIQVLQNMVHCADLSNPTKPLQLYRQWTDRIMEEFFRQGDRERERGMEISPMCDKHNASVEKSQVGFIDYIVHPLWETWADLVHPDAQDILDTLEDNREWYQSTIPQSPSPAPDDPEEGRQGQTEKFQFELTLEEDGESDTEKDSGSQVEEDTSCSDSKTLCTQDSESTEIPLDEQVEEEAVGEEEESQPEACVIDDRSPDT
Description: Confirmatory Test for Phosphodiesterase (PDE) 4 Inhibitory Activity
(1) Mass Preparation of Plasmids
Plasmids containing genes coding for human PDE4D (HPDE4D) (stored in Otsuka America Pharmaceutical, Inc., Maryland Research Laboratories) were transformed into Escherichia coli, and mass cultured. The plasmids were then purified using EndoFree™ Plasmid Mix Kit (Qiagen).
(2) Mass expression and purification of PDE4D
African green monkey kidney-derived COS-7 cells (RCB 0539) were subcultured in a DMEM medium containing 100 units/ml penicillin, […] streptomycin and 10% FBS. The plasmids prepared in (1) were transfected into the cells, using LipofectAMINE™ 2000 Reagent (hereinafter referred to as “LF2000”, a product of Invitroge), according to the attached protocol. For comparison, pcDNA3.1 was transfected as a control vector. The COS-7 cells were inoculated into 10 cm diameter petri dishes on the day before transfection, so that the cells reached 90% confluence on the day of transfection. Twelve micrograms of the plasmids diluted with 0.9 ml of OPTI-MEM I (Invitrogen) (a plasmid solution; Solution A) and 30 μl of LF2000 diluted with 0.9 ml of OPTI-MEM I (a LF2000 solution; Solution B) were prepared per petri dish, and allowed to stand at room temperature for 5 minutes. Solutions A and B were then mixed together and allowed to stand at room temperature for 20 minutes. The mixture was added to the cultured cells, and incubation was performed overnight at 37° C. in an atmosphere of 5% CO2. The culture medium was changed on the following day, incubation was continued overnight, and the cells were collected by the following procedure. First, the cells were washed once with PBS (Sigma), and 2 ml of Trypsin-EDTA solution (Sigma) was added per petri dish, spread over the dish and removed. The cells were then allowed to stand at 37° C. for 2 to 3 minutes, separated from the petri dish and suspended in a medium. The suspension was placed in a centrifuge tube, and centrifuged at 200×g and 4° C. for 5 minutes. The supernatant was then removed. The cells were further washed with PBS and stored at −80° C. A KHEM buffer (50 mM Hepes, 50 mM KCl, 10 mM EGTA, 1.92 mM MgCl2, pH 7.2) containing 1 mM DTT, 40 μg/ml PMST, 156 μg/ml benzamidine, 1 μg/ml apotinin, 1 μg/ml leupeptin, 1 μg/ml pepstatin A, and 1 μg/ml antipain was added to the cells that had been stored, and the resulting mixture was placed in a glass homogenizer and homogenized on ice. The cell suspension was centrifuged at 100×g and 4° C. for 5 minutes, and the supernatant was further centrifuged at 100,000×g for 1 hour. Thereafter, the supernatant was dispensed into new tubes as a PDE4D enzyme solution, and stored in an ultra-low-temperature freezer. The protein concentration of the PDE4D enzyme solution was then measured.
(3) Determination of Dilution Factor of PDE4D Enzyme Solution
The PDE4D enzyme solution prepared in (2) was diluted 10-, 25-, 50-, 100-, 200-, 400- and 800-fold with 20 mM Tris-HCl (pH 7.4), and the PDE4D activities of the diluted enzyme solutions were measured by the method described in (4) to determine the optimum dilution factor to obtain a PDE4D enzyme solution in which degraded cAMP constituted 10 to 30% of the total cAMP.
(4) Measurement of PDE4D Inhibitory Activity
The necessary amount of each test substance was weighed out and dissolved in 100% DMSO to a concentration of 10 mM. The resulting solutions were stored in a freezer as test substance stock solutions. Before the inhibitory activity measurement, the stock solutions were melted, diluted 2-fold with 100% DMSO to a concentration of 5 mM, and further diluted with 100% DMSO to obtain test substance solutions with 10 graded concentrations. Each test substance solution was added to a 1.2 ml tube containing 23 μl of 20 mM Tris-HCl (pH 7.4). […]

TNF-α production = test: Measurement of TNF-α production inhibitory activity; type: cell-based; settings: PBMC; concentration that inhibits TNF-α production by 50%; LPS (1 μg/ml)-stimulated human peripheral blood mononuclear cells, 24 hours, ELISA
Description: Measurement of TNF-α Production Inhibitory Activity
The following tests were performed to evaluate TNF-α production inhibitory activity.
(1) Separation of Human Peripheral Blood Mononuclear Cells
A peripheral blood sample was obtained from a healthy adult donor who had signed a written informed consent. Thirty milliliters of the blood sample, which had been heparinized, was dispensed into a Leucosep tube (Greiner) containing 16 ml of a lymphocyte separation solution (Nakarai Chemical, Ltd.) under the filter barrier, and centrifuged at 1000×g for 15 minutes.
The intermediate layer corresponding to a mononuclear cell fraction was collected in a 50 ml centrifuge tube, and washed twice with a RPMI 1640 medium. After trypan blue staining, the viable count was determined and adjusted to 2×10^6 cells/ml with RPMI 1640 medium.
(2) Induction of TNF-α Production
E. coli (Serotype 055:B5)-derived LPS, which had been dissolved in a RPMI 1640 medium to a concentration of 5 mg/ml, sterilized by filtration and stored in a freezer, was melted and diluted with a RPMI 1640 medium to 10 μg/ml. The test substances were dissolved in DMSO to obtain solutions with a concentration of […] the final use concentration. One microliter of each of the graded concentration test substance solutions, 149 μl of RPMI 1640 medium, 50 μl of LPS solution (final concentration: 1 μg/ml), 50 μl of fetal bovine serum, and […] of the peripheral blood mononuclear cell suspension were dispensed to each well of a 48-well plate and incubated at 37° C. for 24 hours.
(3) Measurement of TNF-α Concentration
After completion of the incubation, the culture supernatant was collected from each well, and the TNF-α concentration in the supernatant was measured by ELISA method (Human TNF-α Eli-pair, Diaclone).

| SMILES | IC50 (human PDE4D (HPDE4D)) [nM] | melting point [°C] | IC50 (TNF-α production) [nM] |
| --- | --- | --- | --- |
| CCOc1ccc(-c2nc(/C=C/C(=O)c3ccccc3OC)cs2)cc1OCC [Example 1, (E)-3-[2-(3,4-diethoxyphenyl)thiazole-4-yl]-1-(2-methoxyphenyl)propenone] | 23.6 | 130 to 131 | 8 |
| CCOc1ccc(-c2nc(CCC(=O)c3ncccc3OC)cs2)cc1OCC [Example 88, 3-[2-(3,4-diethoxyphenyl)thiazole-4-yl]-1-(3-methoxypyridine-2-yl)-1-propanone] | 0.4 | 79.2 to 79.7 | – |
| CCOc1ccc(-c2nc(CCC(=O)c3ccccc3C(F)(F)F)cs2)cc1OCC [Example 99] | 29 | 91.7 to 93 | – |
| CCOc1ccc(-c2nc(CCC(=O)c3ccccc3)cs2)cc1OCC [Example 91] | – | 113.3 to 113.6 | 543 |
| CCOc1ccc(-c2nc(CCC(=O)c3ccccc3OC)cs2)cc1OCC [Example 89, 3-[2-(3,4-diethoxyphenyl)thiazole-4-yl]-1-(2-methoxyphenyl)-1-propanone] | – | 68.9 to 69.3 | 7 |

Next, values leading:

| IC50 (human PDE4D (HPDE4D)) [nM] | melting point [°C] | IC50 (TNF-α production) [nM] | SMILES |
| --- | --- | --- | --- |
| 9.7 | 113.7 to 114.8 | – | CCOc1ccc(-c2nc(CCC(=O)c3ccccc3C#N)cs2)cc1OCC [Example 239, 2-{3-[2-(3,4-diethoxyphenyl)thiazole-4-yl]propionyl}benzonitrile] |
| 2.3 | 84.3 to 86.1 | – | CCOc1ccc(-c2nc(CCC(=O)c3ccccc3OCC)cs2)cc1OCC [Example 100] |
| 7.2 | 169.4 to 171.2 | – | CCOc1ccc(-c2nc(CCCc3ncccc3OC)cs2)cc1OCC.Cl.Cl [Example 238, 2-{3-[2-(3,4-diethoxyphenyl)thiazole-4-yl]propyl}-3-methoxypyridine dihydrochloride] |
| 5.8 | 107.1 to 107.4 | – | CCOc1ccc(-c2nc(CCC(=O)c3ccccc3C)cs2)cc1OCC [Example 107] |
| 5.7 | 102.8 to 104.2 | – | CCOc1ccc(-c2nc(CCC(=O)c3ccc(Cl)cc3OC)cs2)cc1OCC [Example 106] |
